Reference: paper PMC5252617 (Pharmaceutical research, 2012)
Where two headings read alike, the source gives them in different places.

Biological target: T1, human apical sodium-dependent bile acid transporter (hASBT) (Homo sapiens, UniProt Q12908)
T1 sequence (Q12908 1-348): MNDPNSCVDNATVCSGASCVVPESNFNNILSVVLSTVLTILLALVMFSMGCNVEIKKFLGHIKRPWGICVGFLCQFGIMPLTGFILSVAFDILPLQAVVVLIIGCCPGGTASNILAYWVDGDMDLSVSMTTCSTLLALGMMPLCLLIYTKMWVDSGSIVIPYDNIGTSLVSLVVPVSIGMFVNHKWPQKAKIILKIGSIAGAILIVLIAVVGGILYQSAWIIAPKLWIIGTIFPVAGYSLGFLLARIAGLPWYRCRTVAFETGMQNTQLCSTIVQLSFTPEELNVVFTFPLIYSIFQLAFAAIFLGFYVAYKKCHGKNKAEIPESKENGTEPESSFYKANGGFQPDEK
Experiment: time-dependent inactivation of [3H]-TCA uptake after pre-incubation, hASBT-MDCK
Assay type: cell-based

Row | Compound | KI (inactivation) (read-out: 3β-Cl-CDCA) | KI (inactivation) (read-out: 7α-Ms-CDCA)
1 | C[C@H](CCC(=O)O)[C@H]1CC[C@H]2[C@@H]3[C@H](O)C[C@@H]4C[C@@H](Cl)CC[C@]4(C)[C@H]3CC[C@]12C [3β-Cl-CDCA, 3β-chloro-7α-hydroxy-5β-cholan-24-oic acid] | 810 ± 190 nM | 
2 | C[C@H](CCC(=O)O)[C@H]1CC[C@H]2[C@@H]3[C@H](OS(C)(=O)=O)C[C@@H]4C[C@H](O)CC[C@]4(C)[C@H]3CC[C@]12C [7α-Ms-CDCA, 3α-hydroxy-7α-mesyloxy-5β-cholan-24-oic acid] |  | 1190 ± 60 nM
